Results: patent publication US12396977B2, “Composition for treating degenerative brain diseases, containing 2-pentylfuran as active ingredient” (DAEGU GYEONGBUK INSTITUTE OF SCIENCE AND TECHNOLOGY, priority 2019, dated 2025)

Assays:
cerebral cortex = test: Cytokine mRNA in cerebral cortex after IP injection (qRT-PCR); assay type: in vivo, mouse; conditions: vs control
From the text: For the measurement of mRNA, RNA was isolated from red blood cells, microglia, astrocytes, Hana3A cells, or cerebral cortical cells using the MagNa Lyser (Roche Molecular Diagnostics) using TRIzol reagent (Invitrogen, Carlsbad, CA.) according to the manufacturer's protocol. Then, cDNA was generated through reverse transcription using the isolated mRNA (using PrimeScript™ 1st str and cDNA Synthesis kit—#6110; Takara Bio Inc). This process was quantitatively measured in real time through quantitative real-time-PCR (using LightCycler® 480 SYBR Green I Master). The measured values were calculated using the 2-ΔΔCt method.

[1] = test system: Hana3A cells expressing Olfr110; test: Boyden chamber chemotaxis, Hana3A cells expressing Olfr110; assay type: cell-based; conditions: 2-PF 10, 100, 1000 uM
Experimental: (§1) Cell chemotaxis was measured using a multiwell Boyden chamber. More specifically, a polycarbonate filter (8 μm pore; #101-8; Neuroprobe) was coated with […] fibronectin in PBS (Sigma-Aldrich) for 2 hours, and the coated filter was placed in a Boyden chamber. In addition, the bottom side of the plate was filled with serum-free DMEM containing 2-pentylfuran or a culture supernatant. Next, microglia or Hana3A cells were transfected with an odorant receptor structure and then suspended in serum-free DMEM. Subsequently, microglia and Hana3A cells were allowed to stand at 37° C. for 4 hours and 8 hours, respectively. Cells sinking to the bottom were fixed with 4% PFA, and stained with hematoxylin for 10 minutes. Fixed cells were counted under an optical microscope in 5 randomly selected fixed […] fields (200×) using a scored eyepiece. The chemical chemotaxis index was defined as the number of migrating cells using an untreated group as a standard.

[2] = test system: Hana3A cells expressing Olfr111; test: Boyden chamber chemotaxis, Hana3A cells expressing Olfr111; assay type: cell-based; conditions: 2-PF 10, 100, 1000 uM
Experimental: as §1

microglia = test: Ex vivo phagocytosis of microglia in brain slices (time-lapse confocal); set-up: species or system mouse; conditions: brain slices of CX3CR1 GFP/+ mice
Experimental: In this experiment, in order to examine the phagocytotic action of microglia, the brain of a 9-week-old male CX3CR1^GFP/+ mouse was cut to a thickness of 150 μm using a vibratome (Leica VT1200) and then stored in an ice-cooled artificial cerebrospinal fluid (aCSF: 120 mM NaCl, […], 25 mM NaHCO3, 1.25 mM NaH2PO4, 5 mM KCl, 1 mM CaCl2, 1 mM MgSO4, […], pH7.4). Thereafter, the sliced brain was cultured for removal of cell debris. Oxygenated aCSF was pretreated in a perfusion chamber at 37° C. for 2 hours. Subsequently, before culture, the sliced brain was cultured with 500 μl of aCSF containing 9.10×10^7 microspheres ([…]; #17458; Polysciences) and covered with a custom-made nylon grid. Time lapse videos were taken at intervals of 1 minute for 92 minutes using a confocal microscope. The number of phagocytosing microglia was calculated from the images.

primary microglia = test: cAMP ELISA in primary microglia; assay type: cell-based, mouse; conditions: 2-PF 0, 100, 500 μM
Experimental: Primary microglia were inoculated into 48 well plates (2×10^5 cells/well) and treated with 30 μM forskolin (#F3917, Sigma Aldrich), or 2-PF (10, 100, 500 μM) for 30 minutes. In order to confirm the effect of an inhibitor, 1 mM SQ22536 (#17318-31-9; Calbiochem) was first pretreated for 30 minutes. The cells were lysed in a solution of 0.1 M of HCl with 1% Triton X 100 for 10 minutes, and the lysate was centrifuged at 600×g for 2 minutes. The supernatant was directly used for cAMP analysis using a cAMP ELISA kit (Enzo Life Science) according to the manufacturer's protocol. The optical density at 405 nm was measured using a VersaMax microplate reader (Molecular Devices).

CCCCCc1ccco1 [2-PF, 2-pentylfuran]
mRNA expression level of inflammatory cytokines in the cerebral cortex (cerebral cortex): significantly increased
mobility (chemotaxis) of Olfr110-expressing Hana3A cells [1]: increased in mobility in a concentration-dependent manner
mobility (chemotaxis) of Olfr111-expressing Hana3A cells [2]: increased in mobility in a concentration-dependent manner
ex vivo phagocytosis activity of microglia (microglia): increased
cAMP concentration in primary microglia (primary microglia): increased by 2-PF treatment in a concentration dependent manner
